Structures are written as SMILES. “And” between values parts separate entries of the source, which are not always exact repeats. Identical values can stand only once. “Also recorded” adds a separate entry of the source.

Series [1] relates to NMDA receptors at single spine. Put plainly: calcium imaging and NMDA currents at single spines. It is filed as cell-based, rat.
In series [2] the test system is recognition memory of 1-year old rats. Put plainly: novel object recognition. As to conditions: rat, in vivo. Here is the method:
(§1) Behavior test: Novel object recognition. The subjects were 20 experimentally naive, female, Sprague-Dawley rats (Charles River), 1 year old at the beginning of the experiment. They were housed two per cage with continuous access to food and water under a 12:12 light-dark cycle, with light onset at 8:00 a.m. Rats in the Mg^++-treated group received drinking water containing 6 mg/kg/day MgCl2 for 4 months before experiments.
The rats were first habituated to the open-field arena by allowing them to explore it for two daily 15-min sessions. Two identical objects were present in the arenas during habituation sessions; those objects were not used in the subsequent experimental trials. The rat was placed into the arena with two identical sample objects and allowed to explore for 10 min (familiarization phase). For the double-training test, the familiarization phase was repeated with the interval of 10 min. The rat was then removed and the objects were replaced with two new objects; one of the new objects was identical to the sample and the other was a novel object that the rat had never before encountered. The rat was returned to the arena for the retention test and allowed to explore for 5 min (retention test). The retention intervals were 10 min and 24 hours. Rats spent the retention interval in a cage in the colony room. Objects were cleaned thoroughly between trials with 20% ethanol solution to ensure the absence of olfactory cues. The particular objects for a given trial were randomly determined, but each object was used for only one trial per rat.
The criteria for exploration were strictly based on active exploration, in which rats had to be sniffing or touching the object with the nose and/or forepaws. The main dependent measure was the exploration ratio, that is, the proportion of total object-exploration that was spent exploring the novel object (tnovel/[tnovel+tfamiliar]) during the 5-min test phase. To determine whether the rats discriminated between the novel and familiar objects, the exploration ratios obtained under each condition were compared with what would be expected by chance (i.e., a ratio of ˜50%), using one-sample Student's t tests.

The subject of series [3] is postsynaptic locations of cultured hippocampal neurons. Put plainly: postsynaptic evoked current response to iontophoretic glutamate (AMPA-R insertion). It is filed as cell-based, rat. An excerpt: These were generally as described in the preceding examples. Glutamatergic iontophoresis was perfomed as described [Murnick 2000].
Since we wished to correlate the above pre-synaptic findings to the plasticity of single or small clusters of postsynaptic locations, this ruled out traditional double-patch plasticity experiments in which heterogeneous populations of connections are studied. Such studies also usually confound pre-synaptic and postsynaptic effects. For this purpose, we developed a technique of high-temporal and spatial resolution glutamatergic iontophoresis that allows us to stimulate single or small clusters of postsynaptic locations (resolution ˜2 μm, 1 ms; [Murnick 2000]).
To determine whether a decrease in overall activity of a neural network leads to increased plasticity (i.e., an increase in synaptic strength in response to a pattern of stimulation) of postsynaptic locations, we assessed the effect of treatment with Mg^++ on the ability of postsynaptic locations to respond to glutamate. As described above, Mg^++ blocks the NMDA receptor channel at resting membrane potential, so Mg^++ treatment reduces the overall activity level of the neural network. As also described above, increases in postsynaptic intracellular Ca^++ stimulated by activation of NMDA receptors leads to recruitment of AMPA receptors and their insertion into the postsynaptic membrane. […]

The test system of series [4] is excitatory and inhibitory terminals.
The conditions of series [5]: rat, in vivo. Here is the method: Determination of [Mg^++] in CSF. Total Mg^++ levels in CSF in control and Mg^++-treated rats were determined by a colorimetric method with xylidyl blue (Anilytics Incorporated, MD) (Thomas, L. (1998). Clinical Laboratory diagnostics. 1st ed. Francfurt: TH-Books Verlagsgesellschaft, 231-41.)
as §1
We noted that the extracellular concentration Mg^+ in the CSF of a normal human brain is about 1.2 mM, the same concentration at which we obtained the maximum synaptic plasticity in vitro (FIG. 8B). We tested whether increasing Mg^++ concentration might also lead to enhanced synaptic plasticity in rats in vivo. Since Mg^++ is an essential mineral, normally obtained only by ingestion, we added a low quantity of Mg^++ (˜6 mg/kg/day) to drinking water in attempt to raise CSF Mg^++ concentration. This amount was proportional to that recommended by the FDA as a daily food supplement for humans. Two groups of adult Sprague-Dawley rats (8 months) were used as experimental populations. […]

Turning to `[Mg+2]` [Mg^++], in series [1], the “reduction of Ca^2+ influx (ΔF/F)” value is 57±5% and 54±7%; the “reduction of NMDA currents (EPSCNMDA amplitude)” value was 54±7% and 57±5%. In series [2], the “effect on exploratory activity or motivation” value is given as “no effect on exploratory activity or motivation”; the “exploratory preference towards the novel object, short-term and long-term memory trials” value is recorded as “significant exploratory preference towards the novel object”; the “preference to the novel object, long-term” value is reported as 60%; the “preference to the novel object, short-term memory test” value worked out at 75%. Further, in series [2], the “preference towards the novel object, long-term memory test” value is reported as “retained the same level of preference for 24 hours; also recorded: significant exploratory preference towards the novel object in long-term memory trials” and the “total time exploring both identical objects during training” value amounted to 24.1 ± 2.5 s. Further, the “postsynaptic evoked current response to glutamate (AMPA-R insertion)” value in series [3] was “showed significant levels of AMPA-R insertion; also recorded: increased current amplitude over time”. For the same molecule, in series [4], the “increase of synaptic density” value is approximately 30%; the “neuronal density and morphology” value was “normal neuronal density and morphology”. In addition, the “increase in CSF [Mg]” value in series [5] is “approximately 0.13 mM”.

For the origin of these results see patent US20060089335A1, “Compositions and methods for enhancing cognitive function and synaptic plasticity” (priority 2003, published 2006).
